Reference: ChEMBL document CHEMBL4680280, “Modulation of the Innate Immune Response by Targeting Toll-like Receptors: A Perspective on Their Agonists and Antagonists” (J Med Chem, 2020)

How the values were obtained:
Toll-like receptor 2 [1] = target: T1, Toll-like receptor 2 (Homo sapiens, UniProt O60603); experiment: Agonist activity at TLR2 (unknown origin)
Toll-like receptor 2 [2] = target: T1, Toll-like receptor 2; experiment: Agonist activity at TLR2 in HEK-Blue hTLR2 cells assessed as NF-kappaB activation preincubated for 24 hrs followed by replacement of medium containing compound and measured after 0.5 to 1 hrs by Quanti-blue SEAP assay
Toll-like receptor 5 = Toll-like receptor 5 (Homo sapiens, UniProt O60602); experiment: Inhibition of Flagellin-BS binding to human TLR5 expressed in HEK293 cells harboring SEAP reporter gene preincubated for 24 hrs followed by compound wash out and subsequent Flagellin-BS addition along with compound and measured after 0.5 hrs by QUANTI-Blue assay; assay type: cell-based
Toll-like receptor 4 = Toll-like receptor 4 (Homo sapiens, UniProt O00206); experiment: Modulation of TLR4 in human THP1 cells assessed as reduction in LPS-induced TLR4 expression pretreated for 2 hrs followed by LPS challenge and measured after 18 hrs by flow cytometry; assay type: cell-based, THP-1
Sequence of Toll-like receptor 4 (O00206 whole entry): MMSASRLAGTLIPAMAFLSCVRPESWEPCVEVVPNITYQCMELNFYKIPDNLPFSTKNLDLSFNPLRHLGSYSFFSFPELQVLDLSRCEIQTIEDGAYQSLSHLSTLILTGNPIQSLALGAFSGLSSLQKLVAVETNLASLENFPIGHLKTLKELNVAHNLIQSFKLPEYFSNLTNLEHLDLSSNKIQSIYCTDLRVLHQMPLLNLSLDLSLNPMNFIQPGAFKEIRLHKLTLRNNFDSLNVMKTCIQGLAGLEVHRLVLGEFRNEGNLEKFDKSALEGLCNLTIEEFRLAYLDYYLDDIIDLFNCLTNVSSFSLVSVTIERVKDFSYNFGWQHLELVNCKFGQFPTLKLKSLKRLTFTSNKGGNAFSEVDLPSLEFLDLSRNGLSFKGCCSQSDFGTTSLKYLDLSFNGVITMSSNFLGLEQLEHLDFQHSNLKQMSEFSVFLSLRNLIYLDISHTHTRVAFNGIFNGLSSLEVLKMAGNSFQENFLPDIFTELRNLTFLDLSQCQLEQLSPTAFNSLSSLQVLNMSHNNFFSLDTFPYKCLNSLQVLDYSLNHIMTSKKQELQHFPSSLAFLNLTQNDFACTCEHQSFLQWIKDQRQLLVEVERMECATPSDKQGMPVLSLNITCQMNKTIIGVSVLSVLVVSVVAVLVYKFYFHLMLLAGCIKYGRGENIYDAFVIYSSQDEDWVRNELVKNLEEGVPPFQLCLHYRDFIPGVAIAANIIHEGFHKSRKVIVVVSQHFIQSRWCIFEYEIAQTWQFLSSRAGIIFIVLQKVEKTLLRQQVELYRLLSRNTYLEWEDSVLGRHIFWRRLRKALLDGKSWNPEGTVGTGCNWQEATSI

T1 sequence (O60603 whole entry): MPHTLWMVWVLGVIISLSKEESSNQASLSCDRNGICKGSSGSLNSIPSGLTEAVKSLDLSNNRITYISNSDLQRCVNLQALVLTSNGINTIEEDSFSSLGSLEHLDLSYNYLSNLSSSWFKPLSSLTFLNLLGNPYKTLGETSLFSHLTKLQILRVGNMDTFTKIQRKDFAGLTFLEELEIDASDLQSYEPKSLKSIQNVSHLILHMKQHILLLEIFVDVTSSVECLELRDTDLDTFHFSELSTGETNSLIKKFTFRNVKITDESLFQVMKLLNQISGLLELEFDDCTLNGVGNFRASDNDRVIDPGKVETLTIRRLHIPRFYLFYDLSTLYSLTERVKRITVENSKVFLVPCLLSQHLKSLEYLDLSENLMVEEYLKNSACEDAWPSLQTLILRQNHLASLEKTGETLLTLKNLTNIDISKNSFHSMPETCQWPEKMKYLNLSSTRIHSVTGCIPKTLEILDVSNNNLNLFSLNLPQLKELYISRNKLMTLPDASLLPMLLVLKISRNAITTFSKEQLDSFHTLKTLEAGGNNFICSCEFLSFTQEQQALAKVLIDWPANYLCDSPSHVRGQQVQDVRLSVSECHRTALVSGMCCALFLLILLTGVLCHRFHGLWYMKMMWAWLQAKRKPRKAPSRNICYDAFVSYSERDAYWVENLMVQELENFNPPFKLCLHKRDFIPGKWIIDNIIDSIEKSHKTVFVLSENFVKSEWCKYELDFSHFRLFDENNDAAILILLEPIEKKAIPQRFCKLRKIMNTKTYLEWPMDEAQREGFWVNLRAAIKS
Sequence of Toll-like receptor 5 (O60602 whole entry): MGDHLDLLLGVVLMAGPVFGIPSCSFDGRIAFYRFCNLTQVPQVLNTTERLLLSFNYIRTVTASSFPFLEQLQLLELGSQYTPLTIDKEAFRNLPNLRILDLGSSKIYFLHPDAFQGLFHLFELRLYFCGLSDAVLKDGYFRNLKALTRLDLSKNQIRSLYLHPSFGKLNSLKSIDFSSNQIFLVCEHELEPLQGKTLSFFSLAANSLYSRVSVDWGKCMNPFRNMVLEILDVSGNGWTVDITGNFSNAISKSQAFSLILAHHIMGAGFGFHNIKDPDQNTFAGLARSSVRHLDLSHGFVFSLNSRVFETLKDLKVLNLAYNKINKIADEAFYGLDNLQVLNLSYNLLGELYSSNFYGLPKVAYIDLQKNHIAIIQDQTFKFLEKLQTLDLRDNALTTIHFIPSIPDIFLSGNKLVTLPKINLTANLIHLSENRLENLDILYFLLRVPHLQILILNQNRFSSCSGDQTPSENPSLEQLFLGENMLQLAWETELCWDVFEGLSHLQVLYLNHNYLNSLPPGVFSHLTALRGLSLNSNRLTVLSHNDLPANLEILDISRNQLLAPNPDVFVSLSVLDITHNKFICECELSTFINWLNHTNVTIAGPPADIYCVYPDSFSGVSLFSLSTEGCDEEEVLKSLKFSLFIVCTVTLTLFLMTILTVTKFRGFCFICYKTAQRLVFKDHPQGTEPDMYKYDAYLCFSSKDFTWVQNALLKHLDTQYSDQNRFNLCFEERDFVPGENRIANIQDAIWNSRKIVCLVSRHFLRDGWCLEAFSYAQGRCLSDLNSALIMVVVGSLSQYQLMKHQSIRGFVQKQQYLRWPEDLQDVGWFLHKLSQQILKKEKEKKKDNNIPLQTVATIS

## CCCCCCCCCCCCCCCC(=O)OC[C@H](CSC[C@H](NC(C)=O)C(=O)N[C@@H](CO)C(=O)N[C@@H](CCCCN)C(=O)N[C@@H](CCCCN)C(=O)N[C@@H](CCCCN)C(=O)N[C@@H](CCCCN)C(=O)N[C@@H](CO)C(=O)N[C@@H](CC(C)C)C(=O)N[C@H](CN[C@@H](CCSC)C(=O)N[C@@H](Cc1c[nH]c2ccccc12)C(=O)N[C@H](C(=O)N[C@H](C(=O)N[C@@H](CCC(N)=O)C(=O)N[C@H](C(=O)O)C(C)C)[C@@H](C)O)[C@@H](C)CC)CC(C)C)OC(=O)CCCCCCCCCCCCCCC
Toll-like receptor 2 [1]
  EC50: 0.28 nM

## CCCCCCCCCCCCCCCC(=O)OCCC[C@H](CSC[C@H](N)C(=O)N[C@@H](CO)C(=O)N[C@@H](CCCCN)C(=O)N[C@@H](CCCCN)C(=O)N[C@@H](CCCCN)C(=O)N[C@@H](CCCCN)C(=O)N[C@@H](CO)C(=O)N[C@@H](CC(C)C)C(=O)N[C@H](CN[C@@H](CCSC)C(=O)N[C@@H](Cc1c[nH]c2ccccc12)C(=O)N[C@H](C(=O)N[C@H](C(=O)N[C@@H](CCC(N)=O)C(=O)N[C@H](C(=O)O)C(C)C)[C@@H](C)O)[C@@H](C)CC)CC(C)C)OC(=O)CCCCCCCCCCCCCCC
Toll-like receptor 2 [1]
  EC50: 0.38 nM

## CNc1ccc([N+](=O)[O-])cc1-n1cnc(-c2ccc(C(F)(F)F)cc2O)c1
Toll-like receptor 2 [2]
  EC50: 4.88 nM

## CCCCCCCCCCCCCCCC(=O)OCCCC[C@H](CSC[C@H](N)C(=O)N[C@@H](CO)C(=O)N[C@@H](CCCCN)C(=O)N[C@@H](CCCCN)C(=O)N[C@@H](CCCCN)C(=O)N[C@@H](CCCCN)C(=O)N[C@@H](CO)C(=O)N[C@@H](CC(C)C)C(=O)N[C@H](CN[C@@H](CCSC)C(=O)N[C@@H](Cc1c[nH]c2ccccc12)C(=O)N[C@H](C(=O)N[C@H](C(=O)N[C@@H](CCC(N)=O)C(=O)N[C@H](C(=O)O)C(C)C)[C@@H](C)O)[C@@H](C)CC)CC(C)C)OC(=O)CCCCCCCCCCCCCCC
Toll-like receptor 2 [1]
  EC50: 0.3 nM

## c1ccc(Cn2c(Sc3ncnc4c3sc3ncccc34)nnc2-c2ccncc2)cc1
Toll-like receptor 5
  IC50: 850 nM

## CCOC(=O)c1c(NC(=O)N2CCN(C)CC2)sc2c1CCC2
Toll-like receptor 2 [2]
  EC50: 550 nM

## CCCCCCCCCCCCCCCC(=O)OC[C@H](CSC[C@H](N)C(=O)N[C@@H](CO)C(=O)N[C@@H](CCCCN)C(=O)N[C@@H](CCCCN)C(=O)N[C@@H](CCCCN)C(=O)N[C@@H](CCCCN)C(=O)N[C@@H](CO)C(=O)N[C@@H](CC(C)C)C(=O)N[C@H](CN[C@@H](CCSC)C(=O)N[C@@H](Cc1c[nH]c2ccccc12)C(=O)N[C@H](C(=O)N[C@H](C(=O)N[C@@H](CCC(N)=O)C(=O)N[C@H](C(=O)O)C(C)C)[C@@H](C)O)[C@@H](C)CC)CC(C)C)OC(=O)CCCCCCCCCCCCCCC
Toll-like receptor 2 [1]
  EC50: 0.47 nM

## C=C1C(=O)O[C@@H]2[C@H]3O[C@]3(C)CC/C=C(\C)CC[C@@H]12
Toll-like receptor 4
  IC50: 1400 nM
